Data as given in EP0972447B1, “Parasitic and saprophagous mite control on beneficial insects” (BASF AKTIENGESELLSCHAFT, priority 1998, dated 2000).

Tests used:
[1] = tested on: Varroa jacobsoni (Varroa mites); assay: Efficacy against Varroa jacobsoni on topically treated honeybees (Example 1, hives 70% infested): parasite mortality; assay type: in vivo; conditions: 120 h, 5 days at 31°C, read-out: % Mortality Parasites
Experimental: (§1) In this evaluation, honeybees (Apis mellifera) taken from hives which are 70% infested with Varroa jacobsoni (Varroa mites) are chilled to immobilize the bees. A 1µl droplet of an acetone solution of test compound is applied to the dorsal abdomen of each bee. Control bees receive a 1µl droplet of acetone. A total of 50-52 bees are treated for each dose rate tested. Treatment dose rates are based upon the LD50 (dose rate required to obtain 50% mortality of healthy uninfected bees) of each test compound and are set at 10% of the LD50 and subsequent 10-fold dilutions thereof. The treated bees are placed in an incubator at 31°C in the dark and fed 50% sugar water ad libitum for 5 days. After incubation, the bees are examined for mortality and mite infestation.

[2] = tested on: honeybees (Apis mellifera); assay: Mortality of the topically treated host honeybees (Example 1); assay type: in vivo; conditions: 5 days at 31°C
Experimental: as §1

honeybees = assay: Mortality of the topically treated host honeybees (Example 2); assay type: in vivo, Apis mellifera; conditions: bees 90% infected
Experimental: as §1
(§2) Using essentially the same procedure described in Example 1, but employing honeybees which are 90% infected with Varroa jacobsoni, the following results are obtained and shown in Table II below.

Varroa jacobsoni = assay: Efficacy against Varroa jacobsoni on topically treated honeybees (Example 2, bees 90% infected): mite mortality; assay type: in vivo; conditions: 120 h, read-out: % Mortality Mites
Experimental: as §1, §2

[3] = 0.002 µg/bee topical in acetone

SMILES: CN(c1ccc(F)c(C(F)(F)F)c1)c1cc(Oc2ccc(F)c(C(F)(F)F)c2)ncn1 [A]
- mortality at 0.08 µg/bee ([1]; 0.08 µg/bee topical in acetone): 75%
- mortality at 0.8 µg/bee ([1]; 0.8 µg/bee topical in acetone): 100%
- mortality at 8 µg/bee ([1]; 8:0 µg/bee topical in acetone): 92%
- % Mortality Bees ([2]; 0.08 µg/bee topical in acetone): 21%
- % Mortality Bees ([2]; 0.8 µg/bee topical in acetone): 13%
- % Mortality Bees ([2]; 8:0 µg/bee topical in acetone): 21%

SMILES: Fc1ccc(Oc2cc(Oc3ccc(F)c(C(F)(F)F)c3)ncn2)cc1C(F)(F)F [B]
- mortality at 0.002 µg/bee [1, 3]: 6%
- mortality at 0.02 µg/bee ([1]; 0.02 µg/bee topical in acetone): 36%
- mortality at 0.2 µg/bee ([1]; 0.2 µg/bee topical in acetone): 88%
- % Mortality Bees [2, 3]: 16%
- % Mortality Bees ([2]; 0.02 µg/bee topical in acetone): 14%
- % Mortality Bees ([2]; 0.2 µg/bee topical in acetone): 10%

SMILES: CN(c1ccc(F)c(C(F)(F)F)c1)c1cc(Oc2ccc(F)c(C(F)(F)F)c2)ncn1 [C]
- % Mortality Bees (honeybees; 0.01 µg/bee topical): 13%
- % Mortality Bees (honeybees; 0.10 µg/bee topical): 12%
- % Mortality Bees (honeybees; 1.00 µg/bee topical): 16%
- mortality at 0.01 µg/bee (Varroa jacobsoni; 0.01 µg/bee topical): 8%
- mortality at 0.1 µg/bee (Varroa jacobsoni; 0.10 µg/bee topical): 80%
- mortality at 1 µg/bee (Varroa jacobsoni; 1.00 µg/bee topical): 91%
